Data on 2 compounds can be found in publication PMC7837216, “ISRIB Blunts the Integrated Stress Response by Allosterically Antagonising the Inhibitory Effect of Phosphorylated eIF2 on eIF2B” (Molecular Cell, 2021).

Assay [1] addresses T1, eIF2B (decamer; ISRIB pocket formed by the β- and δ-subunits) (Homo sapiens, UniProt P49770+Q9UI10). As to the kind of experiment: FP competition with FAM-ISRIB; BLI (ISRIB-induced dissociation of eIF2B from P-eIF2α-NTD). Format: binding. Also noted: gene EIF2B2; purified recombinant human eIF2B decamer; with eIF2Bβ (EIF2B2), with eIF2Bα, γ, ε in the decamer; P-eIF2α-NTD immobilised in the BLI assay.

The target in assay [2] is T1, eIF2B (decamer; ISRIB pocket formed by the β- and δ-subunits). As to the kind of experiment: fluorescence polarization, kinetic displacement by unlabelled ISRIB (koff). Also noted: gene EIF2B2; purified recombinant human eIF2B decamer; with eIF2Bβ (EIF2B2), with eIF2Bα, γ, ε in the decamer. Format: binding.

In the case of `O=C(COc1ccc(Cl)cc1)N[C@H]1CC[C@H](NC(=O)COc2ccc(Cl)cc2)CC1` [ISRIB], in assay [1], the EC50 amounted to 1.8 nM.

As to FAM-ISRIB, the “fluorescence polarization, kinetic displacement by unlabelled ISRIB (koff)” value in assay [2] was 0.0123 s⁻¹.
